Entries after “also recorded” stand apart in the source; their conditions may differ.
Key:
NKNT-3 cells = assay: MTT cytotoxicity assay; format: cell-based, human
Protocol: MTT Cytotoxicity Assays. Sensitivity of NKNT-3 cells to either 5 μM ganciclovir or G418 (500 μg/ml) was confirmed by 3-(4,5-dimethyl-2-thiazolyl)-2,5-diphenyl 2H-tetrazolium bromide (MTT) cytotoxicity assays. NKNT-3 cells were plated in a 96-well microplate at 5×10^3 cells per well to obtain a growth curve. On days 1, 3, 5, and 7, MTT (20 μg/ml) was added to a different well, incubated for 4 h, and then reacted with 150 μl of isopropanol for 10 min. Relative percentage of viability was determined by the ratio of absorbance at 570 and 630 nm with Bio-Rad EIA reader (Bio-Rad, Richmond, Calif.).

C8-B/Ras cells = assay: Soft agar assay, sensitivity of colonies to gancyclovir; format: cell-based, rat
Protocol: Soft agar assay. To assay the capacity for anchorage independent growth, 5×10^4 cells were suspended in 2 ml of 0.3% Difco agar in IM and gently overlaid onto 60 mm dishes containing a lower layer of 0.5% agar. Cultures were fed every 5 to 7 days with a small amount of media. After 20 days of growth at 37° C., the dishes were stained with 0.5 mg/ml p-iodonitrotetrazolium violet (Sigma Chemical Co., St. Louis, Mo.), and macroscopically visible colonies (>100 μm in diameter) were scored. HepG2 cells were used as a positive control.

tumors in SCID mice = assay: Tumor sensitivity to gancyclovir in tumor-bearing SCID mice; format: in vivo, mouse
Protocol: SCID mouse studies. The tumorigenicity of cell lines was assayed by subcutaneous injection of cells into the flanks of immunodeficient (SCID) mice. Cells were dislodged from monolayer culture with trypsin, washed, and suspended in PBS. SCID mice were inoculated subcutaneously with 1×10^6 cells per site. Animals were monitored every third day for the development of growth at the sites of injection. Animals were sacrificed at 24 weeks or when tumors reached 1 to 2 cm in diameter. Tumors were processed for routine histology and immunohistochemistry. To determine tumor sensitivity to treatment with gancyclovir, some animals were given a 0.2 ml intraperitoneal injection of gancyclovir (50 mg/kg) daily for 14 days when tumors reached 1-1.2 cm in size.

| SMILES | sensitivity of NKNT-3 cells to G418 (NKNT-3 cells; G418 500 μg/ml) | rare three-dimensional colonies after Ad-Cre infection, sensitivity to gancyclovir (C8-B/Ras cells; C8-B/Ras cells after Ad-Cre infection) | C8-B/Ras soft agar colonies, sensitivity to gancyclovir (C8-B/Ras cells; media containing 5 μM gancyclovir) | tumor recurrence (tumors in SCID mice; 4-week post-gancyclovir observation period) | tumor response by the end of gancyclovir treatment (tumors in SCID mice; gancyclovir 50 mg/kg, 14-day course) | time until tumors stopped growing (tumors in SCID mice; gancyclovir 50 mg/kg, 14-day course, tumors >1 cm) [days] | sensitivity of NKNT-3 cells to ganciclovir (NKNT-3 cells; 5 μM ganciclovir) |
| --- | --- | --- | --- | --- | --- | --- | --- |
| CN[C@@H]1[C@@H](O)[C@@H](O[C@@H]2[C@@H](O)[C@H](O[C@H]3O[C@H]([C@@H](C)O)[C@@H](O)[C@H](O)[C@H]3N)[C@@H](N)C[C@H]2N)OC[C@]1(C)O [G418] | confirmed |  |  |  |  |  |  |
| Nc1nc(O)c2ncn(COC(CO)CO)c2n1 [gancyclovir] |  | all were sensitive | could be eliminated | no tumor recurrence | could no longer be identified clinically or histologically; also recorded: complete regression of established tumors | ≤ 5 | confirmed |

From US20070264243A1, “REVERSIBLY IMMORTALIZED HEPATOCYTES AND METHODS OF USE” (priority 1999, published 2007)
